According to patent US8415469B2, “Compounds and methods for kinase modulation, and indications therefor” (Plexxikon Inc., priority 2005, dated 2013):

How the values were obtained:
Type in all cases: biochemical
[1] = biological target: T1, B-Raf V600E (Homo sapiens, UniProt P15056, V600E); assay: AlphaScreen kinase assay, B-Raf V600E; conditions: read-out: IC50, activity toward kinase B-Raf V600E
T1 construct: P4254. pFastBacBD-CDC37 BRAF D437-K722-X, V600E; His6 with pFastBac HT leader (TEV site) (N); made in house; host or cells: Sf9 (baculovirus; chaperone CDC37 co-expressed)

[2] = biological target: T2, Btk (Homo sapiens, UniProt Q06187); assay: Z'-Lyte FRET kinase assay (Invitrogen), Btk; conditions: read-out: IC50, activity toward kinase Btk
T2 construct: purchased Invitrogen (assay run by Invitrogen)

[3] = biological target: T3, B-Raf (Homo sapiens, UniProt P15056); assay: AlphaScreen kinase assay, B-Raf; conditions: read-out: IC50, activity toward kinase B-Raf
T3 construct: purchased Upstate Biotechnology

[4] = biological target: T4, Src (Homo sapiens, UniProt P12931); assay: AlphaScreen kinase assay, Src; conditions: read-out: IC50, activity toward kinase Src
T4 construct: P1144. pET-N6 BI-PTP SRC V86-L536-X; made in house

[5] = biological target: T5, Fms (Homo sapiens, UniProt P07333); assay: AlphaScreen kinase assay, Fms; conditions: read-out: IC50, activity toward kinase Fms
T5 construct: purchased Upstate Biotechnology

[6] = biological target: T6, FGFR1 (Homo sapiens, UniProt P11362, C488A/C584S); assay: AlphaScreen kinase assay, FGFR1; conditions: read-out: IC50, activity toward kinase FGFR
T6 construct: P1351.pET N6 BI-PTP FGFR A458-E765-X C488A, C584S; made in house; host or cells: E. coli (PTP1B co-expressed)

[7] = biological target: T7, Jnk1 (Homo sapiens, UniProt P45983); assay: AlphaScreen kinase assay, Jnk1; conditions: read-out: IC50, activity toward kinase Jnk1
T7 construct: purchased Upstate Biotechnology

[8] = biological target: T8, Kit (Homo sapiens, UniProt P10721); assay: AlphaScreen kinase assay, Kit; conditions: read-out: IC50, activity toward kinase Kit
T8 construct: P1332.N6 BI PTP KIT M552-K948-X COD; His6 (N); made in house; host or cells: E. coli (PTP1B co-expressed)

[9] = biological target: T9, Jnk3 (Homo sapiens, UniProt P53779); assay: AlphaScreen kinase assay, Jnk3; conditions: read-out: IC50, activity toward kinase Jnk3
T9 construct: purchased Upstate Biotechnology

[10] = biological target: T10, Ret (Homo sapiens, UniProt P07949); assay: AlphaScreen kinase assay, Ret; conditions: read-out: IC50, activity toward kinase Ret
T10 construct: P1378.pET-SF BI-PTP RET H661-R1012 HIS; made in house
T10 sequence (P07949 with tags, fused parts or gaps): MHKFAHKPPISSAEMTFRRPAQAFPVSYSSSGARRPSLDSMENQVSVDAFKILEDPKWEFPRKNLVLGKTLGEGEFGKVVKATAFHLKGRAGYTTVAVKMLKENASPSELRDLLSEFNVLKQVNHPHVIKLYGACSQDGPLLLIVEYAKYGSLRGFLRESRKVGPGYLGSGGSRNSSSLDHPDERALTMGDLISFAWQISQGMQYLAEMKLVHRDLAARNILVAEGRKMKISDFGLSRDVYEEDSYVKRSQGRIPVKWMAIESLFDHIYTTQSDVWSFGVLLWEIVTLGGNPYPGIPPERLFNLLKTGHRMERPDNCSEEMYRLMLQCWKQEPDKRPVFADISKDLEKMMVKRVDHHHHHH

[11] = biological target: T11, c-Raf-1 (Homo sapiens, UniProt P04049); assay: AlphaScreen kinase assay, c-Raf-1; conditions: read-out: IC50, activity toward kinase c-Raf-1
T11 construct: purchased Upstate Biotechnology

[12] = biological target: T12, Fak (Homo sapiens, UniProt Q05397); assay: AlphaScreen kinase assay, Fak; conditions: read-out: IC50, activity toward kinase Fak
T12 construct: P1358.pFastBacHtb FAK S411-Q686-X; His6 with pFastBacHTb leader (TEV site) (N); made in house; host or cells: Sf9 (baculovirus)

[13] = biological target: T13, Flt1 (Homo sapiens, UniProt P17948); assay: AlphaScreen kinase assay, Flt1; conditions: read-out: IC50, activity toward kinase Flt1
T13 construct: P1826.pETN6 BI-PTP FLT1 M799-D1165-X WT; His6 (N); made in house; host or cells: E. coli (PTP1B co-expressed)
T13 sequence (P17948 with tags, fused parts or gaps): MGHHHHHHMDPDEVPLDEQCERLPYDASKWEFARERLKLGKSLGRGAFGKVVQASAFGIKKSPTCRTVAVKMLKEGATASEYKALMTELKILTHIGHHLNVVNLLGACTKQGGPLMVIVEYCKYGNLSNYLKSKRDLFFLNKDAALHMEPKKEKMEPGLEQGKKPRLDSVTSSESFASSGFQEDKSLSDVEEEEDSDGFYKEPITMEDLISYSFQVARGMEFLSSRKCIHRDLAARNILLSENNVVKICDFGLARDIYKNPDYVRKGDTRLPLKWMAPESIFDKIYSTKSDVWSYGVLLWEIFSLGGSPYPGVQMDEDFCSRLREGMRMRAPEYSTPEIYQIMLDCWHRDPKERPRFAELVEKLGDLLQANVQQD

Measured: IC50

T2 sequence (Q06187 whole entry): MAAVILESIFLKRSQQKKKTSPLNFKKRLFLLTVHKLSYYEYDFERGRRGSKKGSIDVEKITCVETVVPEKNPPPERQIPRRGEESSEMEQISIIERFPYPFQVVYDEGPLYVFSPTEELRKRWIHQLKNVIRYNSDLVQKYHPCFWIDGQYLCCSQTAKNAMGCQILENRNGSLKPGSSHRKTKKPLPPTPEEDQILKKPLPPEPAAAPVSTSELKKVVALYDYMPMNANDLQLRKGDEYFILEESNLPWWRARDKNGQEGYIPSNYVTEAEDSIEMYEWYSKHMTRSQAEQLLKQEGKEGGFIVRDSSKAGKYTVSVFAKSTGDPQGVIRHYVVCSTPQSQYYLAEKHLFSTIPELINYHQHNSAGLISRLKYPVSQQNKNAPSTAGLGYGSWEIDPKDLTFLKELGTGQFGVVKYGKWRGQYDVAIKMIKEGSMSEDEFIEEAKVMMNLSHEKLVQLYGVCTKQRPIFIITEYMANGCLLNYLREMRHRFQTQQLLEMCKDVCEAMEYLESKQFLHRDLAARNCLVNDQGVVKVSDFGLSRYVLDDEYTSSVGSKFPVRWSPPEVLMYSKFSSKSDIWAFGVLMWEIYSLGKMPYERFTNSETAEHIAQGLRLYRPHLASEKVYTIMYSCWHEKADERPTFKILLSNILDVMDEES
T3 sequence (P15056 whole entry): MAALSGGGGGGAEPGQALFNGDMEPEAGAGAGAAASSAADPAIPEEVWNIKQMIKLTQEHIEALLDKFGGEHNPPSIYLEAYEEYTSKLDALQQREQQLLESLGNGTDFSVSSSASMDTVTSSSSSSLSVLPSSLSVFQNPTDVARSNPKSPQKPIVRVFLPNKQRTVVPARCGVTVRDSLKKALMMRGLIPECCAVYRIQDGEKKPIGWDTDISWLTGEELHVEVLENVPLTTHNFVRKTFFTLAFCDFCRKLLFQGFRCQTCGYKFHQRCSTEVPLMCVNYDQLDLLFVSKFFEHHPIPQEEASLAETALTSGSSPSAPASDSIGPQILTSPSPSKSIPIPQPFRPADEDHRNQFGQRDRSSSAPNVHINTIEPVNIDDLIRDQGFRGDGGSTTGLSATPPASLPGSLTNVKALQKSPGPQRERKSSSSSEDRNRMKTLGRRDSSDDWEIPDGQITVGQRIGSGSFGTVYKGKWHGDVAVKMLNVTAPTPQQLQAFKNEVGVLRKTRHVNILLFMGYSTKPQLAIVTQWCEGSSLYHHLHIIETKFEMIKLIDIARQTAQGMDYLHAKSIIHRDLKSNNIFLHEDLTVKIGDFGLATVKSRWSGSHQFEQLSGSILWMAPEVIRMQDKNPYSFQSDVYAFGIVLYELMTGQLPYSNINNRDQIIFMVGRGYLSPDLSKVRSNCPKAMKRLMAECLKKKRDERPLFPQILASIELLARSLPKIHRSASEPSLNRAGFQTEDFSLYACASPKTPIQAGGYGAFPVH
T9 sequence (P53779 whole entry): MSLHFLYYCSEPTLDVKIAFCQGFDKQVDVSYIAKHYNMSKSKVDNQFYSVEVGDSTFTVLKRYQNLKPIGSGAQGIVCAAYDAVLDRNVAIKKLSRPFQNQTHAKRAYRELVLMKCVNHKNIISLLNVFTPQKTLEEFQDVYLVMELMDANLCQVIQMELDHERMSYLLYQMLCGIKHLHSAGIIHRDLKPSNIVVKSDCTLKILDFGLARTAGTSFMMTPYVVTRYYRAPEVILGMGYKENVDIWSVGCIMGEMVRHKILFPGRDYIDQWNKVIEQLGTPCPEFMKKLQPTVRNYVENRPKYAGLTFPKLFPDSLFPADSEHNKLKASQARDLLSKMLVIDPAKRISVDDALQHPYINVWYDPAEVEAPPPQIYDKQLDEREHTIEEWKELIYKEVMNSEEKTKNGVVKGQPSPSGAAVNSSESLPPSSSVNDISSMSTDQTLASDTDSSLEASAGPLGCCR
T4 sequence (P12931 with tags, fused parts or gaps): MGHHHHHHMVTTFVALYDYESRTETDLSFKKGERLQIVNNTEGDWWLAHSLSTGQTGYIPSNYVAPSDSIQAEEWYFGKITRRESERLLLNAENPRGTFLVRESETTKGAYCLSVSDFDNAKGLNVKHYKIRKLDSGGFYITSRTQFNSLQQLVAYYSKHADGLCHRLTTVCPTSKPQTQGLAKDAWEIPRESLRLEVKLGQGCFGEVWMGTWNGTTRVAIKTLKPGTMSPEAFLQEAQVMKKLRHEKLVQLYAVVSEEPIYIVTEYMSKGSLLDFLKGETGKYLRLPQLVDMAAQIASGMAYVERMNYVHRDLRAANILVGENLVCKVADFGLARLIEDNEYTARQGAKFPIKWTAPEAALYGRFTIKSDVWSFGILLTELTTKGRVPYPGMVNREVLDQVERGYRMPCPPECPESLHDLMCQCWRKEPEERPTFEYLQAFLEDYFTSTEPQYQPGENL
T6 sequence (P11362 458-765 C488A/C584S): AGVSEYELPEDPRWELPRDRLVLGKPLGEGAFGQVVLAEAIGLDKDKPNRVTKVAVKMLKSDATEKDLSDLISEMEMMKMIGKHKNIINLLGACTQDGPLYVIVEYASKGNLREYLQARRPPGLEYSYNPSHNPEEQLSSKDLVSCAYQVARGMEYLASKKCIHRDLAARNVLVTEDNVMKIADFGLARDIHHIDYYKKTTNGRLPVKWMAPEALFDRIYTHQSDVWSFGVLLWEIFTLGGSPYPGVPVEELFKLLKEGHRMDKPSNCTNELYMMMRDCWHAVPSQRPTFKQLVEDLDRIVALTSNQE
T7 sequence (P45983 whole entry): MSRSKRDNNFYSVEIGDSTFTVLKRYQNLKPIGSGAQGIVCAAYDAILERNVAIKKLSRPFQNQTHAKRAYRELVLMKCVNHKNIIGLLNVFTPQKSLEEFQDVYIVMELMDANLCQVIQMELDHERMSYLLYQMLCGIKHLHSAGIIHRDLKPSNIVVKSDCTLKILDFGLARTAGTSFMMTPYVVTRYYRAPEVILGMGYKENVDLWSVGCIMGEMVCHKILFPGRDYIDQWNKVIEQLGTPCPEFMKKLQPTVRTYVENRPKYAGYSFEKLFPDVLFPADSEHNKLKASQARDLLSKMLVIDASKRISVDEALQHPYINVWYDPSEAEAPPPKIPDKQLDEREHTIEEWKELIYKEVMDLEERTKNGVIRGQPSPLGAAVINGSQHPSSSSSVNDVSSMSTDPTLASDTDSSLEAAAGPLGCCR
T11 sequence (P04049 whole entry): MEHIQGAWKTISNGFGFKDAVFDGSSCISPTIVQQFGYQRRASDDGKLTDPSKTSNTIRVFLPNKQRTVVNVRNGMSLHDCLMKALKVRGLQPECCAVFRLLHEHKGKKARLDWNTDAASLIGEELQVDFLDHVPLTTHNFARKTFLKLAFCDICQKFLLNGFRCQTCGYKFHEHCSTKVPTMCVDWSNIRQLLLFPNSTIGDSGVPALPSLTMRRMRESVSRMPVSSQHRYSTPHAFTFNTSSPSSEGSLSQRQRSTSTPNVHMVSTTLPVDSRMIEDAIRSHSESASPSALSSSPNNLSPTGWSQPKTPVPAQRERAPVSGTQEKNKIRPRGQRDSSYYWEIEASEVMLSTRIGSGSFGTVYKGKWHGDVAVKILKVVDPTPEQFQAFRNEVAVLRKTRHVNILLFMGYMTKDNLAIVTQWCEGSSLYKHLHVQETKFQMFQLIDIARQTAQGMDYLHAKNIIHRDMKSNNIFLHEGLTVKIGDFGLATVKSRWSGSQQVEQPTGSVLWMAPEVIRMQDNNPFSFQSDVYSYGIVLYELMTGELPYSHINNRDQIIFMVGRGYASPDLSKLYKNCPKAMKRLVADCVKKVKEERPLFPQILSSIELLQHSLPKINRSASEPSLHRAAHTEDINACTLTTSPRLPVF
T8 sequence (P10721 with tags, fused parts or gaps): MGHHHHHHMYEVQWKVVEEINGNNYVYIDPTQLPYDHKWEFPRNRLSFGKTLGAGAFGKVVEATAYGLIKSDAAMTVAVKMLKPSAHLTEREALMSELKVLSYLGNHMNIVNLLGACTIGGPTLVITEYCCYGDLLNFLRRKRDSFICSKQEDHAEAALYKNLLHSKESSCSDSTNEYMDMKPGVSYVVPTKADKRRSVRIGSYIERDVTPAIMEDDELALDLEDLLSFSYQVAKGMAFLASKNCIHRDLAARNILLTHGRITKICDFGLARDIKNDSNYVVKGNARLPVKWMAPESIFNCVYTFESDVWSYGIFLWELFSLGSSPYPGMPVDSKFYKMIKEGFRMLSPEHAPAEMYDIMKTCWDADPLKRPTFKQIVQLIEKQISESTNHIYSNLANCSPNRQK
T1 sequence (P15056 with tags, fused parts or gaps V600E): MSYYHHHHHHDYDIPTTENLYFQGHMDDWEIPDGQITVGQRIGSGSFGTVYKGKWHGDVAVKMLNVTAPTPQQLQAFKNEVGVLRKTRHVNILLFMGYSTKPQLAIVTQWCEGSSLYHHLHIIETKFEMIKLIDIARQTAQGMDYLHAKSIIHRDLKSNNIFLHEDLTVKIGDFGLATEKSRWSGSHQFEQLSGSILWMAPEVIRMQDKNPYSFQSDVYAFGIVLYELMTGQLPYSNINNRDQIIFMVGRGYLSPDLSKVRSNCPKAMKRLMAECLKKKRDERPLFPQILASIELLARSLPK
T12 sequence (Q05397 411-686): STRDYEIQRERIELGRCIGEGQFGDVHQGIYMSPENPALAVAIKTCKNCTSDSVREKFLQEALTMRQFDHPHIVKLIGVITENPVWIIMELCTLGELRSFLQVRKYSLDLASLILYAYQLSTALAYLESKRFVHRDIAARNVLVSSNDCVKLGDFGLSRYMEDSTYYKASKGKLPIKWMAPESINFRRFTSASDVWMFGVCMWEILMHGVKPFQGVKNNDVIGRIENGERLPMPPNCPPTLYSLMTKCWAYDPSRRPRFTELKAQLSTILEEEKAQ

COc1cccc(C(=O)c2c[nH]c3ncc(-c4cccnc4)cc23)c1F [Compound P-1343, (2-Fluoro-3-methoxy-phenyl)-(5-pyridin-3-yl-1H-pyrrolo[2,3-b]pyridin-3-yl)-methanone]
not listed: [9] | [10] | [11] | [12] | [13]
≤ 10 µM: all other assays above

O=C(c1c(F)ccc(NCc2ccccc2)c1F)c1c[nH]c2ncc(-c3cccnc3)cc12 [Compound P-0807, (3-Benzylamino-2,6-difluoro-phenyl)-(5-pyridin-3-yl-1H-pyrrolo[2,3-b]pyridin-3-yl)-methanone]
not listed: [8] | [12] | [13]
≤ 10 µM: all other assays above

O=C(c1c(Cl)cccc1Cl)c1c[nH]c2ncc(-c3cccnc3)cc12 [Compound P-1479]
not listed: [7] | [9] | [10] | [11] | [13]
≤ 10 µM: all other assays above

COc1ccc(F)c(C(=O)c2c[nH]c3ncc(-c4ccncc4)cc23)c1F [Compound P-1389, (2,6-Difluoro-3-methoxy-phenyl)-(5-pyridin-4-yl-1H-pyrrolo[2,3-b]pyridin-3-yl)-methanone]
not listed: [4] | [7] | [9] | [10] | [13]
≤ 10 µM: all other assays above

Cc1cccc(C)c1Cc1c[nH]c2ncc(-c3cccnc3)cc12 [Compound P-1481, 3-(2,6-Dimethyl-benzyl)-5-pyridin-3-yl-1H-pyrrolo[2,3-b]pyridine]
not listed: [7] | [9] | [10] | [11] | [13]
≤ 10 µM: all other assays above

CCCS(=O)(=O)Nc1ccc(F)c(C(=O)c2c[nH]c3ncc(-c4cccc(C(=O)O)c4)cc23)c1F [Compound P-1266, 3-{3-[2,6-Difluoro-3-(propane-1-sulfonylamino)-benzoyl]-1H-pyrrolo[2,3-b]pyridin-5-yl}-benzoic acid]
not listed: [9] | [10] | [11]
≤ 10 µM: all other assays above

CCCS(=O)(=O)Nc1ccc(F)c(C(=O)c2c[nH]c3ncc(/C=C/C(=O)O)cc23)c1F [Compound P-1269, 3-3-[2,6-difluoro-3-(propane-1-sulfonylamino)-benzoyl]-1H-pyrrolo[2,3-b]pyridin-5-yl-acrylic acid]
not listed: [7] | [9] | [10] | [11]
≤ 10 µM: all other assays above

O=C(c1c(F)cccc1F)c1c[nH]c2ncc(-c3cccnc3)cc12 [Compound P-1485]
not listed: [7] | [8] | [10] | [11] | [13]
≤ 10 µM: all other assays above

O=C(c1c(F)ccc(NS(=O)(=O)c2cccs2)c1F)c1c[nH]c2ncc(Cl)cc12 [Compound P-1267, Thiophene-2-sulfonic acid [3-(5-chloro-1H-pyrrolo[2,3-b]pyridine-3-carbonyl)-2,4-difluoro-phenyl]-amide]
not listed: [7] | [9] | [10] | [11] | [13]
≤ 10 µM: all other assays above

O=C(Nc1ccc(F)c(C(=O)c2c[nH]c3ncc(-c4cccnc4)cc23)c1F)OCc1ccccc1 [Compound P-0302, [2,4-Difluoro-3-(5-pyridin-3-yl-1H-pyrrolo[2,3-b]pyridine-3-carbonyl)-phenyl]-carbamic acid benzyl ester]
not listed: [9]
≤ 10 µM: all other assays above

Cc1cccc(C)c1C(=O)c1c[nH]c2ncc(-c3cccnc3)cc12 [Compound P-1480]
not listed: [7] | [9] | [10] | [11] | [13]
≤ 10 µM: all other assays above

O=C(O)/C=C/c1ccc(-c2cnc3[nH]cc(C(=O)c4ccccc4F)c3c2)cc1 [Compound P-1473]
not listed: [8] | [10] | [11] | [13]
≤ 10 µM: all other assays above

CCNC(=O)COc1ccc(F)c(Cc2c[nH]c3ncc(-c4cccnc4)cc23)c1F [Compound P-1475, 2-[2,4-Difluoro-3-(5-pyridin-3-yl-1H-pyrrolo[2,3-b]pyridin-3-ylmethyl)-phenoxy]-N-ethyl-acetamide]
not listed: [10] | [11]
≤ 10 µM: all other assays above

COc1ccc(C(=O)c2c[nH]c3ncc(-c4cccc(C(N)=O)c4)cc23)c(F)c1 [Compound P-1346]
not listed: [10] | [11] | [13]
≤ 10 µM: all other assays above

COc1ccc(F)c(C(=O)c2c[nH]c3ncc(-c4cccnc4)cc23)c1F [Compound P-1388, (2,6-Difluoro-3-methoxy-phenyl)-(5-pyridin-3-yl-1H-pyrrolo[2,3-b]pyridin-3-yl)-methanone]
not listed: [7] | [9] | [10] | [13]
≤ 10 µM: all other assays above
